Laboratory results: article PMC7235764, “Novel Azoles as Antiparasitic Remedies against Brain-Eating Amoebae” (Antibiotics, 2020)

Experiments:
N. fowleri [1] = assay: Amoebicidal assay (trypan blue exclusion) against N. fowleri; format: cell-based, Naegleria fowleri; settings: 50 μM, 24 h; for percentage cell death (amoebicidal activity): negative control considered as 0%; for amoebicidal activity, mean (M): M with SD, azole alone (before conjugation)
Protocol: (§1) N. fowleri cells (ATCC 30174) and B. mandrillaris cells (ATCC 50209) were acquired from American Type Culture Collection and cultivated in RPMI-1640 media supplemented with 1% antibiotics with HeLa cell monolayers used as a feeder layer at 37 °C and 5% CO2 as previously cultured.
(§2) Amoebicidal assays were accomplished as formerly explained. Briefly, 5 × 10^5 amoebae cells were kept for 24 h at 37 °C and 5% CO2 with 50 μM azole compounds. While positive controls used were amphotericin B and ketoconazole, RPMI-1640 alone was used as negative control and respective solvents were used as solvent control. Trypan blue exclusion assay, which consists of using 0.1% trypan blue to differentiate between live (unstained) and dead (stained) cells and count the cells using a haemocytometer.

HaCaT cells = assay: Cytotoxicity assay (LDH release) against human cells; format: cell-based; settings: 50 μM, 24 h, 37 °C
Protocol: Figure 3 Cytotoxic effects of azoles against host cells. Briefly, 50 μM azoles were incubated with HaCaT cells monolayers for 24 h at 37 °C in a 5% CO2 incubator as described in Materials and Methods. […] The data are presented as the mean ± standard error. Cytotoxic effects of the drugs were determined as previously described. 50 μM azole compounds was incubated on HeLa cells for 24 h at 37 °C and 5% CO2 in RPMI-1640 media. The level of lactate dehydrogenase (LDH) enzyme in the RPMI-media which indicates cytotoxic effects of drugs was determined by means of a cytotoxicity detection kit (Roche Applied Science). The percentage cytotoxicity was calculated: [(Absorbance of sample - Absorbance of untreated cells)/(Absorbance for total LDH release - Absorbance of untreated cells)] × 100 = percentage cytotoxicity.

B. mandrillaris [2] = assay: Amoebicidal assay (trypan blue exclusion) against B. mandrillaris; format: cell-based, Balamuthia mandrillaris; settings: 50 μM, 24 h; for amoebicidal activity, mean (M): M with SD, azole alone (before conjugation); for percentage cell death (amoebicidal activity): negative control considered as 0%
Protocol: as §1, §2

N. fowleri [3] = assay: Amoebistatic assay (growth inhibition on HeLa feeder monolayers) against N. fowleri; format: cell-based, Naegleria fowleri; settings: 24 h; for amoebistatic activity, mean (M): 50 μM, M with SD; for inhibition at 50 µM: Naegleria fowleri, HeLa, compared to untreated cells
Protocol: (§3) N. fowleri cells (ATCC 30174) and B. mandrillaris cells (ATCC 50209) were acquired from American Type Culture Collection and cultivated in RPMI-1640 media supplemented with 1% antibiotics with HeLa cell monolayers used as a feeder layer at 37 °C and 5% CO2 as previously cultured. 5 × 10^5 amoebae cells were kept for 24 h at 37 °C and 5% CO2 with 50 μM azole compounds on HeLa monolayers as feeder cells. While positive controls used were amphotericin B and ketoconazole, RPMI-1640 alone was used as negative control and respective solvents were used as solvent control. Trypan blue exclusion assay which consists of using 0.1% trypan blue to distinguish between live (unstained) and dead (stained) cells and count the cells using a haemocytometer.

B. mandrillaris [4] = assay: Amoebistatic assay (growth inhibition on HeLa feeder monolayers) against B. mandrillaris; format: cell-based, Balamuthia mandrillaris; settings: 24 h; for amoebistatic activity, mean (M): 50 μM, M with SD; for inhibition at 50 µM: Balamuthia mandrillaris, HeLa, untreated amoebae considered as 0%
Protocol: as §3

Row | Structure (SMILES) | percentage cell death (amoebicidal activity) (N. fowleri [1]) | cytotoxicity (HaCaT cells) | amoebicidal activity, mean (M) (B. mandrillaris [2]) | percentage cell death (amoebicidal activity) (B. mandrillaris [2]) | amoebistatic activity, mean (M) (N. fowleri [3]) | inhibition at 50 µM (N. fowleri [3]) | amoebistatic activity, mean (M) (B. mandrillaris [4]) | inhibition at 50 µM (B. mandrillaris [4]) | amoebicidal activity, mean (M) (N. fowleri [1])
1 | CC1(C)C/C(=N\NC(=S)Nc2ccccc2Cl)c2cnn(-c3ccccc3)c2C1 [A3, (E)-N-(2-Chlorophenyl)-2-(6,6-dimethyl-1-phenyl-1,5,6,7-tetrahydro-4H-indazol-4-4ylidene)hydrazine-1-carbothioamide] | 39% | 19% | 23.86% | 24% | 75.12% | 75% | 55.62% | 56% | 
2 | c1ccc(-c2nnn[nH]2)cc1 [A6, 5-Phenyl-1H-tetrazole] | 45% | no cytotoxic activities | 30.58% | 31% | 66.53% | 67% | 70.35% | 70% | 
3 | CC1(C)C/C(=N\NC(N)=S)c2cnn(-c3ccccc3)c2C1 [A4, (E)-2-(6,6-Dimethyl-1-phenyl-1,5,6,7-tetrahydro-4H-indazol-4-4ylidene)hydrazine-1-carbothioamide] | 72% | 5% | 1.65% | limited amoebicidal activity | 54.70% | 55% | 64.98% | 65% | 72.34%
4 | Cc1ccc(-c2nc3ccccc3[nH]2)o1 [A2] | 31% | no cytotoxic activities |  | limited amoebicidal activity | 64.31% | 64% | 70.33% | 70% | 
5 | COc1cc(-c2nc3ccccc3[nH]2)cc(Br)c1OC [A1, 2-[3-Bromo-4,5-bis(methoxy)phenyl]-1H-benzimidazole] | did not cause amoebicidal activity | 41% | 35.62% | 36% |  | 20% | 52.63% | 53% | 0%
6 | Clc1cccc(Cc2nnn[nH]2)c1 [A5, 5-(3-Chlorobenzyl)-1H-tetrazole] | 66% | 11% | 64.54% | 65% | 62.74% | 63% | 51.24% | 51% | 66.19%
